Source: US9464326B2, “Total and phosphorylated IL-1 receptor-associated kinase-1 and IL-1 receptor-associated kinase-4 as a biomarker for cancer progression and chemotherapy resistance” (University of Maryland, Baltimore, priority 2012, dated 2016)

Columns and labels:
CCRF-CEM = experiment: Proliferation (3H-thymidine) of CCRF-CEM; assay type: cell-based, human
From the text: (§1) CCRF-CEM, CEM/C1, CEM/C2, CEM-C7, Jurkat, Loucy, Molt-4, HSB-2, SUP-T1, Hut 78, HH, Hut 102, MO, and H9 T-leukemia and T-lymphoma cell lines were purchased from the American Type Culture Collection (Manassas, Va., USA). All of the cell lines were initially expanded and cryopreserved within one month of receipt. Cells were typically used for 6 months at which time a fresh vial of cryopreserved cells was used. Total T cells from healthy donors were isolated via negative selection followed by positive selection using a CD3+ selection kit (Invitrogen, Carlsbad, Calif.). T cells were isolated from patients with T-ALL bone marrow or peripheral blood samples containing more than 70% leukemia cells using a CD2+ isolation kit (STEMCELL Technologies, Vancouver, Canada). All tissues were collected under institutional IRB-approved protocols and all participants gave written informed assent/consent. For in vitro experiments, T-ALL cells were cultured in AIM-V medium supplemented with 20% human AB serum in the presence of recombinant human stem cell factor (50 ng/mL; Amgen, Thousand Oaks, Calif.), insulin (20 nM; Sigma-Aldrich, St Louis, Mo., USA) and IL-7 (50 ng/mL; R&D Systems, Minneapolis, Minn., USA). In other experiments, protein lysate was collected using the Full Moon Biosystems (Sunnyvale, Calif., USA) buffer prior to protein examination by western blot or protein array.
(§2) Cells were cultured in a 96-well plate (Corning Costar, Corning, N.Y., USA) with various concentrations of TLR ligands 1-9, starting at 10 μg/ml, in a final volume of 200 ul. TLR ligands were diluted 2-fold. Cell lines (25-40×10^3/well) were cultured for 54 hours, whereas fresh patient-derived T-ALL cells (200×10^3/well) were cultured for 30 hours prior to adding [^3H]-thymidine for 18 hours. After this time point, cells were harvested with a Packard Filter-Mate-96 cell harvester (Perkin Elmer, Waltham, Mass., USA) and counted on Packard Top Count-NXT (Perkin Elmer, Waltham, Mass., USA). Results were expressed as average counts per minute (cpm). In some experiments CCRF-CEM cells were pre-treated with TLR1-TLR2 ligand (Pam3CysK4; 2.5 ug/ml) for 48 hrs, washed, and then cultured in the presence of varying concentrations of FBS. Forty-eight hours later, proliferation (±SD) was determined by ^3H-thymidine incorporation. Alternatively, apoptosis was measured by flow cytometry after staining cells with Annexin-V (BD Pharmingen, San Diego, Calif., USA) and propidium iodide (Sigma). Cell number was counted under microscopy by staining cells with trypan blue.
(§3) The following TLR ligands were purchased from Invivogen (San Diego, Calif., USA): tripalmitoyl-S-(bis(palmitoyloxy)propyl)-Cys-Ser-(Lys)3-Lys (TLR1-2); Poly I:C (TLR3); ultrapure S. Minnesota Lipopolysaccharide (TLR4); S. typhimurium flagellin (TLR5); FSL-1 (TLR2/6); Imiquimod (TLR7); ssRNA40/Lyovec (TLR8); CpG-ODN 2006 (TLR9).

CCRF-CEM cells [1] = experiment: Cell cycle analysis (PI staining); assay type: cell-based, human; conditions: 5 uM
Method: Control and treated cells were collected, fixed and stained with propidium iodide (100 μg/mL) in PBS containing sodium citrate (1 mg/mL), Triton-X-100 (0.1%), and RNAse (20 μg/mL) for 30 min. Data were acquired on a BD FACScan flow cytometer using CellQuest software (BD Immunocytometry Systems, San Jose, Calif.) and analyzed by using FlowJo software (Tree Star, Inc., Ashland, Oreg.).
It was investigated whether the reduced proliferation that we observed with IRAK-1,-4 inhibitor (FIG. 11 and FIG. 12) was a result of cell cycle arrest or apoptosis. CCRF-CEM cells were treated with IRAK-1,-4 inhibitor for 24, 48, 72, and 96 hours.

CCRF-CEM cells [2] = experiment: Senescence gene qPCR array / RT-PCR; assay type: cell-based, human; conditions: array of 84 senescence genes, COL1A1 not validated by RT-PCR
From the text: To further study the role of IRAK-1,-4 signaling in cellular senescence, we compared the expression of 84 key genes involved in the initiation and progression of senescence. […] Expression levels of CDKN1C, EGR1 and ID1 were also altered in all four T-ALL patient samples collected from IRAK-1,-4 inhibitor-treated NSG mice (FIG. 15E).

patient T-ALL cells = experiment: Patient T-ALL numbers in NSG mice (flow cytometry); assay type: in vivo; conditions: patient T-ALL cells in irradiated NSG mice; 10 mg/Kg i.p. days 7, 10, 13; FIG. 12
Method: FIG. 12. […] NSG mice were irradiated (400 cGy) one day prior to intravenous injection of patient T-ALL cells (6×10^6 cells/mouse). Once 100 T-ALL cells/ul of blood were detected, mice were received one intraperitoneal injection with IRAK-1,-4 inhibitor (10 mg/Kg) or an equal volume of control vehicle (DMSO) on days 7, 10 and 13. Numbers of T-ALL cells (CD7^+) in peripheral blood were determined on day 27 and D21 by flow cytometry as described in FIG. 1. All the data shown are representative of two independent experiments (±SD) with three mice per group. Representative dot plots from bone marrow are shown in A (left panel). ANOVA; *P<0.05.
CCRF-CEM (2×10^6) cells were injected intravenously (i.v.) into female NOD.Cg-Prkdc^scid Il2rg^tm1WJl/SzJ IL2RG (NSG) mice (Jackson Laboratories, Bar Harbor, Me.). […] In some experiments mice were injected i.v. with TLR1-TLR2 ligand (2.5 μg) two days after injecting cells. In other experiments mice were injected intraperitoneally (i.p.) with IRAK-1,-4 inhibitor (10 mg/kg) 3, 6, and 9 days (CCRF-CEM cells) or 7, 10, and 13 days (patient T-ALL cells) after detecting CD7^+ T-ALL cells in circulation. The numbers of T-ALL cells in the bone marrow, spleen, liver, and in circulation were determined by staining cells with anti-human CD7 and/or CD5. […]

SupT1 = experiment: Proliferation (3H-thymidine) of SupT1; assay type: cell-based, human
From the text: as §1, §2, §3

Hut 102 = experiment: Proliferation (3H-thymidine) of Hut 102; assay type: cell-based, human; conditions: 3H-thymidine uptake, 72 h
From the text: as §1, with “In other experiments, protein lysate was collected using the Full Moon Biosystems (Sunnyvale, Calif., USA) buffer prior to protein examination by western blot or protein array.” left out
Cells were cultured in a 96-well plate (Corning Costar, Corning, N.Y., USA) with various concentrations of TLR ligands 1-9, starting at 10 μg/ml, in a final volume of 200 ul. […] After this time point, cells were harvested with a Packard Filter-Mate-96 cell harvester (Perkin Elmer, Waltham, Mass., USA) and counted on Packard Top Count-NXT (Perkin Elmer, Waltham, Mass., USA). Results were expressed as average counts per minute (cpm). […] Forty-eight hours later, proliferation (±SD) was determined by ^3H-thymidine incorporation. Alternatively, apoptosis was measured by flow cytometry after staining cells with Annexin-V (BD Pharmingen, San Diego, Calif., USA) and propidium iodide (Sigma). Cell number was counted under microscopy by staining cells with trypan blue. […]

Compound	reduction of proliferation of TLR1-TLR2-stimulated cells (CCRF-CEM; IRAK-1,-4 inhibitor 5 μM with TLR1-TLR2 agonist 1 μg/ml, 48 h, FIG. 3A)	lowest concentration effective in reducing proliferation (CCRF-CEM; concentration-dependent, 48 h, FIG. 3B)	decrease of percentage of cells in S phase (CCRF-CEM cells [1]; FIG. 14C)	percentage of cells in G0/G1 phase (CCRF-CEM cells [1]; after 96 hours)	percentage of cells in G0/G1 phase (CCRF-CEM cells [1]; within 24 hours (from 25%))	expression of CDKN1C, COL1A1, EGR1, ID1, PLAU and SERPINES (CCRF-CEM cells [2])	T-ALL numbers (CD7+) in peripheral blood (patient T-ALL cells)	Proliferative effects of TLR ligands (CCRF-CEM; 3H-thymidine uptake, 72 h)	concentration at which cells proliferated in response to the ligand (CCRF-CEM; FIG. 1A)	effect on proliferation (in words) (CCRF-CEM; FIG. 1A)	TLR ligand concentration in parentheses below the symbol (CCRF-CEM; no unit in table (μg/ml))	Proliferative effects of TLR ligands (SupT1; SupT1, 3H-thymidine uptake, 72 h)	effect on proliferation (in words) (SupT1; SupT1 T-lymphoblastic leukemia, FIG. 1A)	Proliferative effects of TLR ligands (Hut 102)
O=C(Nc1nc2ccccc2n1CCN1CCOCC1)c1cccc([N+](=O)[O-])c1 [IRAK-1,-4 inhibitor]	72%	1.5 µM	~30%	50%	43%	significantly up- or down-regulated	reduces T-ALL numbers							
tripalmitoyl-S-(bis(palmitoyloxy)propyl)-Cys-Ser-(Lys)3-Lys [Pam3Cysk4]								+ (enhanced proliferation by 25% or greater)	1.2 µg/mL	proliferated	(1.2)	∘	no effect on proliferation	∘
